Key:
[1] = Average deviation between target (predicted) and measured tacrolimus serum level for dosing Functions 0, 1, 2; parameters: species or system human; conditions: unit assumed
Text: Additionally, data from the clinical trial was utilized to determine the average deviations between a target (i.e., predicted) serum level and an actual (i.e., measured) serum level for the two PPM patients.
Where Function 0 is ST(DT, t)=x0(t)+x1(t)DT+x11(t)DT^2; Function 1 is [(D/S)T](N+1) day=[(D/S)T]N day; and Function 2 is [(D/S)T]next day=x0(t)+x1(t)[AST×(D/S)T]today+z11(t)[AST×(D/S)T] today. […] By incorporating the AST level the current system and methods can provide further improvement in achieving a target serum levels

[2] = human, in vivo
Text: (§1) The inclusion criteria for the study was (1) the subject was undergoing primary or secondary liver or simultaneous liver and kidney transplantation; (2) the subject or a surrogate was able to provide informed consent; and (3) the subject was at least 18 years of age. […] Sixty two (62) subjects were accepted into the trial.
Each of the 62 selected subjects were randomized, with half (31) assigned to a control group and the other half (31) assigned to a phenotypic personalized medicine (PPM) group. The subjects were blinded to group assignments; the clinical team was not blinded. […] The SOC dosing utilized a combination of dose titration and a subjective determination by a clinician. The subjective determination relied on patient weight, age, muscle mass, race/ethnicity, frailty, diet, concomitant medication, and other factors to select an initial dose for the next twenty-four hours. The patient's response to this dose is then taken into consideration for determining the next day's dose recommendation. This determination was repeated each day until the patient was able to be released from the hospital.
After the third day, the Control group continued with the standard-of-care procedure while the PPM group subjects were given dosages calculated by the PPM prediction model, shown in the Function below. […]

[3] = Same clinical trial: clinical outcomes (length of stay, AST normalization, neurotoxicity); type: in vivo, human
Text: as §1
Each of the 62 selected subjects were randomized, with half (31) assigned to a control group and the other half (31) assigned to a phenotypic personalized medicine (PPM) group. The subjects were blinded to group assignments; the clinical team was not blinded. The patients in the PPM group were given tacrolimus dosages based on the present dosage calculation system and patients of the Control group were given tacrolimus dosages based on standard-of-care (SOC) dosing. The SOC dosing utilized a combination of dose titration and a subjective determination by a clinician. The subjective determination relied on patient weight, age, muscle mass, race/ethnicity, frailty, diet, concomitant medication, and other factors to select an initial dose for the next twenty-four hours. The patient's response to this dose is then taken into consideration for determining the next day's dose recommendation. This determination was repeated each day until the patient was able to be released from the hospital.
Tacrolimus dosage was discontinued for one patient in each of the PPM group and the Control group. […] As this would affect dosing accuracy and the study outcomes, this patient was excluded from analysis. One patient assigned to the Control group refused multiple tacrolimus doses in the post-operative period and was therefore excluded from analysis. The remaining 56 (29 Control group and 27 PPM group) patients completed the study and were discharged from the hospital after transplantation.
Following liver transplantation, all study patients were started on standard-of-care medication regimen: a three-drug combination of tacrolimus, a corticosteroid, and mycophenolate. Blood tacrolimus trough levels were measured daily in the morning until patient discharge. […] After the third day, the Control group continued with the standard-of-care procedure while the PPM group subjects were given dosages calculated by the PPM prediction model, shown in the Function below.
The primary outcome measure was percent days with large (>2 ng/ml) deviations from target range. Secondary outcomes included percent days outside-of-target range, ratio of area-under-the-curve outside-of-target-range to total days, graft rejection, graft failure, death, infections, length of stay, nephrotoxicity episodes, or neurotoxicity episodes. Comparisons between the two groups were performed using either the two-tailed Welch's t-test or Student's t-test. For nonparametric (non-normal) distributions, a two-tailed Levene's test was used to compare variances and a two-tailed Wilcoxon Rank Sum test was used to compare medians. Logistic regression was used to dichotomize the length of stay after transplant and the percent days out of target range for comparison. Statistical analyses were performed on JMP Pro 16.1.0.

In the case of `C=CC[C@@H]1/C=C(\C)C[C@H](C)C[C@H](OC)[C@H]2O[C@@](O)(C(=O)C(=O)N3CCCC[C@H]3C(=O)O[C@H](/C(C)=C/[C@@H]3CC[C@@H](O)[C@H](OC)C3)[C@H](C)[C@@H](O)CC1=O)[C@H](C)C[C@@H]2OC` [tacrolimus], the Average Deviation from Target Serum Level ([1]; Function 0, first row of Table 5 (one of the two PPM patients)) is reported as 2.9 ng/mL, the Average Deviation from Target Serum Level ([1]; Function 0, second row of Table 5 (one of the two PPM patients)) is reported as 1.6 ng/mL and the Average Deviation from Target Serum Level ([1]; Function 1, first row of Table 5) is reported as 2 ng/mL. The Average Deviation from Target Serum Level ([1]; Function 1, second row of Table 5) was 1.2 ng/mL, the Average Deviation from Target Serum Level ([1]; Function 2, first row of Table 5) was 1.4 ng/mL and the Average Deviation from Target Serum Level ([1]; Function 2, second row of Table 5) was 0.6 ng/mL. The “decrease in the percentage of days with a large deviation from the target trough drug level” value [2] was 37%, the “reduction of the mean AUC outside of target range” value [2] was 30% and the “days after liver transplant until release from hospital” value ([3]; Control Patient, conventional titration) was 19 days. For the same molecule, the average hospital stay ([3]; Control group) was 15.87 days, the “day by which 90% of the patients were discharged” value ([3]; Control group) was 25 days and the “share of group with post-transplant length of stay two weeks or more” value ([3]; Control group) was 65.5%. The “median days to normalize AST levels (DAST)” value ([3]; Control group (Q1-Q3 6.25-11.75)) was 8.5 days, the “median length-of-stay (LOS)” value ([3]; Control group (Q1-Q3 10.5-20.5)) was 15 days and the average hospital stay ([3]; Control group, two patients with the longest stay removed) was 14.36 days. The “days after liver transplant until release from hospital” value ([3]; First PPM Patient) was 12 days, the average hospital stay ([3]; PPM group) was 10.42 days and the “day by which 90% of the patients were discharged” value ([3]; PPM group) was 15 days. The “share of group with post-transplant length of stay two weeks or more” value ([3]; PPM group (5/27)) was 18.5%, the “median days to normalize AST levels (DAST)” value ([3]; PPM group (Q1-Q3 4-8)) was 6 days and the “median length-of-stay (LOS)” value ([3]; PPM group (Q1-Q3 8-12)) was 10 days. For the same molecule, the “reduction in the post-transplant length of stay” value ([3]; PPM group versus Control group) was “more than 30%”, the average hospital stay ([3]; PPM group, two patients with the longest stay removed) was 8 days and the “day of release from hospital” value ([3]; Second PPM Patient) was 11 days. The “neurotoxicity leading to discontinuation of tacrolimus” value ([3]; one patient in each of the PPM group and the Control group, evidenced by brain imaging) was “neurotoxicity within the first week after transplant that was deemed not dose related”.
